Patent publication US20130225548A1, “Pyridine Derivative and Medicinal Agent” (NIPPON SHINYAKU CO., LTD., priority 2010, published 2013)
Counter-ions that a name gives are not always drawn.

molecular target: T1, Syk tyrosine kinase (Homo sapiens, UniProt P43405); experiment: Test for Syk tyrosine kinase inhibitory activity (ELISA); type: biochemical; conditions: Syk tyrosine kinase (Carna Biosciences), 25 μM ATP in substrate solution, 30° C. 1 hour, n=2; read-out: Evaluation (IC50, concentration inhibiting the tyrosine kinase activity at 50%)
T1 construct: purchased Carna Biosciences, Inc
Procedure: Test Example 1: Test for Syk Tyrosine Kinase Inhibitory Activity
1. Preparation of Test Substance
A test substance was prepared at 10 mM in dimethyl sulfoxide (DMSO), and further diluted with DMSO to concentrations of 1000, 300, 100, 30, 10, 3, 1, 0.3, 0.1, 0.03, and 0.01 μM. The resulting solutions were further diluted to 20-fold with an assay buffer, whereby test substance solutions were prepared. As a negative control, a solution obtained by diluting DMSO to 20-fold with an assay buffer was used. As the assay buffer, a buffer containing 15 mM Tris-HCl (pH 7.5), 0.01 (v/v) % Tween-20, and 1 mM dithiothreitol was used.
2. Measurement of Syk Tyrosine Kinase Inhibitory Activity
The activity was measured using the ELISA method. Each of the test substance solutions was added to a streptavidine-coated 96-well place (DELFIA Strip Plate 8×12 wells, PerkinElmer Co., Ltd,) at 10 μL per well (n=2), and a substrate solution (625 nM biotinylated peptide substrate, 25 μM ATP, 25 mM MgCl2, 15 mM Tris-HCl (pH 7.5), 0.01 (v/v) % Tween-20, 1 mM dithiothreitol) was added to the plate at 20 μL per well, and the resulting mixture was stirred. Finally, Syk tyrosine kinase (Carna Biosciences, Inc.) (previously diluted to 0.025 nM with the assay buffer) was added to the plate at 20 μL per well, and the resulting mixture was stirred. A reaction was allowed to proceed at 30° C. for 1 hour. After the plate was washed 4 times with a washing buffer (50 mM Tris-HCl (pH 7.5, 150 mM NaCl, 0.02 (v/v) % Tween-20), a blocking buffer (0.1% bovine serum albumin, 50 mM Tris-HCl (pH 7.5), 150 mM NaCl, 0.02 (v/v) % Tween-20) was added to the plate at 150 μL per well, and blocking was performed at 30° C. for 30 minutes. Then, the blocking buffer was removed, and a horseradish peroxidase-labeled anti-phosphorylated tyrosine antibody (BD Biosciences, Inc.) (previously diluted to 10000-fold with the blocking buffer) was added to the plate at 100 μL per well, and the plate was incubated at 30° C. for 30 minutes. After the plate was washed 4 times with the washing buffer, a 3,3′,5,5′-tetramethylbenzidine solution (Sigma-Aldrich Co., Ltd.) was added to the plate at 100 μL per well to develop the color for 10 minutes. The reaction was stopped by adding 0.1 M sulfuric acid at 100 μL per well. The absorbance at 450 nm was measured using a microplate reader (Multiskan F C, Thermo Fisher Scientific K,K.).
3. Analysis of Measurement Results
A non-linear regression analysis was performed for the measured absorbance using the SAS system (SAS institute. Inc.), and a concentration of each of the test substances: inhibiting the tyrosine kinase activity at 50% (IC50 ) was calculated. A case where IC50 is […] was evaluated as ***, a case where IC50 is 5 nM or more and less than 50 nM was evaluated as **, and a case where IC50 is 50 nM or more and less than 500 nM was evaluated as *, which are shown in the column of evaluation item.

Compared with `N#Cc1ccnc(Nc2cc(C3CC3)cc(-c3ccc(N4CCC[C@H]4CO)nc3)n2)c1` [Example 48, 2-{(4-cyclopropyl-6′-[(2S)-2-(hydroxymethyl)pyrrolidin-1-yl]-2,3′-bipyridin-6-yl}amino)pyridine-4-carbonitrile hydrochloride], `N#Cc1ccnc(Nc2cc(C3CC3)cc(-c3ccc(N4CC[C@@H](N)C4)nc3)n2)c1` [Example 49, 2-({6′-[(3R)-3-aminopyrrolidin-1-yl]-4-cyclopropyl-2,3′-bipyridin-6-yl}amino)pyridine-4-carbonitrile dihydrochioride] is lower in IC50: 50 to 500 nM for the first, 5 to 50 nM for the second. The second is the more potent here.

Compared with `CC(=O)N[C@@H]1CCN(c2ccc(-c3cc(C4CC4)cc(Nc4cc(C#N)ccn4)n3)cn2)C1` [Example 50, N-[(3R)-1-{6-[(4-cyanopyridin-2-yl)amino]-4-cyclopropyl-2,3′-bipyridin-6′-yl}pyrrolidin-3-yl]acetamide hydrochloride], `N#Cc1ccnc(Nc2cc(C3CC3)cc(-c3ccc(N4CCC(NC(N)=O)CC4)nc3)n2)c1` [Example 64, 1-(1-{6-[(4-cyanopyridin-2-yl)amino]-4-cyclopropyl-2,3′-bipyridin-6′-yl}piperidin-4-yl)urea hydrochloride] is lower in IC50: 50 to 500 nM for the first, 5 to 50 nM for the second.

`N#Cc1ccnc(Nc2cc(C3CC3)cc(-c3ccc(N4CC[C@@H](F)C4)nc3)n2)c1` [Example 51, 2-({4-cyclopropyl-6′-[(3R)-3-fluoropyrrolidin-1-yl]-2,3′-bipyridin-6-yl}amino)pyridine-4-carbonitrile hydrochloride] and `CN(C)[C@@H]1CCN(c2ccc(-c3cc(C4CC4)cc(Nc4cc(C#N)ccn4)n3)cn2)C1` [Example 52, 2-({4-cyclopropyl-6′-[(3R)-3-(dimethylamino)pyrrolidin-1-yl]-2,3′-bipyridin-yl}amino)pyridine-4-carbonitrile hydrochloride] fall in the same range of IC50: 50 to 500 nM for the first, 50 to 500 nM for the second.

`N#Cc1ccnc(Nc2cc(C3CC3)cc(-c3ccc(N4CCCC4=O)nc3)n2)c1` [Example 53, 2-{[4-cyclopropyl-6′-(2-oxopyrrolidin-1-yl)-2,3′-bipyridin-6-yl]amino}pyridine-4-carbonitrile hydrochloride] and `N#Cc1ccnc(Nc2cc(C3CC3)cc(-c3ccc(N4CCNCC4=O)nc3)n2)c1` [Example 66, 2-{[4-cyclopropyl-6′-(2-oxopiperazin-1-yl)-2,3′-bipyridin-6-yl]amino}pyridine-4-carbonitrile hydrochloride] fall in the same range of IC50: 50 to 500 nM for the first, 50 to 500 nM for the second.

`Cc1ccc(-c2cc(C3CC3)cc(Nc3cc(C#N)ccn3)n2)cn1` [Example 54, 2-[(4-cyclopropyl-6′-methyl-2,3′-bipyridin-6-yl)amino]pyridine-4-carbonitrile hydrochloride] and `N#Cc1ccnc(Nc2cc(C3CC3)cc(-c3ccc(CO)nc3)n2)c1` [Example 71, 2-{[4-cyclopropyl-6′-(hydroxymethyl)-2,3′-bipyridin-6-yl]amino}pyridine-4-carbonitrile hydrochloride] fall in the same range of IC50: 50 to 500 nM for the first, 50 to 500 nM for the second.

`N#Cc1ccnc(Nc2cc(C3CC3)cc(-c3ccc4cn[nH]c4c3)n2)c1` [Example 55, 2-{[4-cyclopropyl-6-(1H-indazol-6-yl)pyridin-2-yl]amino}pyridine-4-carbonitrile hydrochloride] and `N#Cc1ccnc(Nc2cc(C3CC3)cc(-c3ccc4[nH]ncc4c3)n2)c1` [Example 56, 2-{[4-cyclopropyl-6-(1H-indazol-5-yl)pyridin-2-yl]amino}pyridine-4-carbonitrile hydrochloride] fall in the same range of IC50: 5 to 50 nM for the first, 5 to 50 nM for the second.

`N#Cc1ccnc(Nc2cc(C3CC3)cc(-c3ccc(N4CCN(C(N)=O)CC4)nc3)n2)c1` [Example 57, 4-{6-[(4-cyanopyridin-2-yl)amino]-4-cyclopropyl-2,3′-bipyridin-6′-yl}piperazine-1-carboxamide hydrochloride] and `CC(=O)N1CCN(c2ccc(-c3cc(C4CC4)cc(Nc4cc(C#N)ccn4)n3)cn2)CC1` [Example 59, 2-{[6′-(4-acetylpiperazin-1-yl)-4-cyclopropyl-2,3′-bipyridin-6-yl]amino}pyridine-4-carbonitrile hydrochloride] fall in the same range of IC50: 5 to 50 nM for the first, 5 to 50 nM for the second.

First: CS(=O)(=O)N1CCN(c2ccc(-c3cc(C4CC4)cc(Nc4cc(C#N)ccn4)n3)cn2)CC1 [Example 58, 2-({4-cyclopropyl-6′-[4-(methanesulfonyl)piperazin-1-yl]-2,3′-bipyridin-6-yl}amino)pyridine-4-carbonitrile hydrochloride]
Second: CNC(=O)CN1CCN(c2ccc(-c3cc(C4CC4)cc(Nc4cc(C#N)ccn4)n3)cn2)CC1 [Example 63, 2-(4-{6-[(4-cyanopyridin-2-yl)amino]-4-cyclopropyl-2,3′-bipyridin-6′-yl}piperazin-1-yl)-N-methylacetamide hydrochloride]
The IC50 of the first is lower: 5 to 50 nM for the first, 50 to 500 nM for the second. The first is the more potent here.

Compared with `N#Cc1ccnc(Nc2cc(C3CC3)cc(-c3ccc(N4CCC(C(=O)O)CC4)nc3)n2)c1` [Example 60, 1-{6-[(4-cyanopyridin-2-yl)amino]-4-cyclopropyl-2,3′-bipyridin-6′-yl}piperidine-4-carboxylic acid hydrochloride], `N#Cc1ccnc(Nc2cc(C3CC3)cc(-c3ccc(N4CCC(C(N)=O)CC4)nc3)n2)c1` [Example 61, 1-{6-[(4-cyanopyridin-2-yl)amino]-4-cyclopropyl-2,3′-bipyridin-6′-yl}piperidine-4-carboxamide hydrochloride] is higher in IC50: 5 to 50 nM for the first, 50 to 500 nM for the second.

Compared with `N#Cc1ccnc(Nc2cc(C3CC3)cc(-c3ccc(N4CCC(C(N)=O)(c5ccc(F)cc5)CC4)nc3)n2)c1` [Example 62, 1-{6-[(4-cyanopyridin-2-yl)amino]-4-cyclopropyl-2,3′-bipyridin-6′-yl}-4-(4-fluorophenyl)piperidine-4-carboxamide hydrochloride], `N#Cc1ccnc(Nc2cc(C3CC3)cc(-c3ccc(N4CCN(C(N)=O)CC4=O)nc3)n2)c1` [Example 67, 4-{6-[(4-cyanopyridin-2-yl)amino]-4-cyclopropyl-2,3′-bipyridin-6′-yl}-3-oxopiperazine-1-carboxamide hydrochloride] is higher in IC50: 5 to 50 nM for the first, 50 to 500 nM for the second. The first is the more potent here.

`N#Cc1ccnc(Nc2cc(C3CC3)cc(-c3ccc(NC4CCN(C(N)=O)CC4)nc3)n2)c1` [Example 65, 4-({6-[(4-cyanopyridin-2-yl)amino]-4-cyclopropyl-2,3′-bipyridin-6′-yl}amino)piperidine-1-carboxamide hydrochloride] and `N#Cc1ccnc(Nc2cc(C3CC3)cc(-c3cncc(N4CCCN(C(N)=O)CC4)c3)n2)c1` [Example 69, 4-{6-[(4-cyanopyridin-2-yl)amino]-4-cyclopropyl-2,3′-bipyridin-5′-yl}-1,4-diazepane-1-carboxamide hydrochloride] fall in the same range of IC50: 5 to 50 nM for the first, 5 to 50 nM for the second.

Compared with `N#Cc1ccnc(Nc2cc(C3CC3)cc(-c3cncc(N4CCS(=O)(=O)CC4)c3)n2)c1` [Example 68, 2-{[4-cyclopropyl-5′-(1,1-dioxidethiomorpholin-4-yl)-2,3′-bipyridin-6-yl]amino}pyridine-4-carbonitrile hydrochloride], `N#Cc1ccnc(Nc2cc(C3CC3)cc(-c3ccc(CN4CCS(=O)(=O)CC4)nc3)n2)c1` [Example 72, 2-({4-cyclopropyl-6′-[(1,1-dioxidethiomorpholin-4-yl)methyl]-2,3′-bipyridin-6-yl}amino)pyridine-4-carbonitrile hydrochloride] is lower in IC50: 50 to 500 nM for the first, 5 to 50 nM for the second.

Compared with `N#Cc1ccnc(Nc2cc(C3CC3)cc(-c3ccc(CN4CCNC(=O)C4)nc3)n2)c1` [Example 70, 2-({4-cyclopropyl-6′-[(3-oxopiperazin-1-yl)methyl]-2,3′-bipyridin-6-yl}amino)pyridine-4-carbonitrile hydrochloride], `N#Cc1ccnc(Nc2cc(C3CC3)cc(-c3cncc(CN4CCNC(=O)C4)c3)n2)c1` [Example 73, 2-({4-cyclopropyl-5′-[(3-oxopiperazin-1-yl)methyl]-2,3′-bipyridin-6-yl}amino)pyridine-4-carbonitrile hydrochloride] is lower in IC50: 50 to 500 nM for the first, 5 to 50 nM for the second.
